Patent publication US10166229B2, “Compounds and methods for the treatment of cancer” (The Board of Trustees of the University of Illinois, priority 2005, dated 2019)
Where two headings read alike, the source gives them in different places.

Assays:
procaspase-3 = procaspase-3 (Homo sapiens (Human), UniProt P42574); assay: In vitro activation of purified procaspase-3 (activation curves, Ac-DEVD-pNA); type: biochemical; details: for EC50: read-out: EC50 for activation of procaspase-3
Description: Activation curves. […] The plate was read every 2 minutes at 405 nm for 2 hours in a Spectra Max Plus 384 well plate reader. The slope of the linear portion for each well was determined and the fold increase in activation from non-treated control wells was calculated. […]

HL-60 cell line = assay: IC50 of PAC-1 derivatives in HL-60 cell line (Table 5); type: cell-based
Text: The results are indicated in Table 5 (where L- and R-designations refer to structures shown in the AX and BX series above, respectively).

Chain of procaspase-3 (P42574 whole entry): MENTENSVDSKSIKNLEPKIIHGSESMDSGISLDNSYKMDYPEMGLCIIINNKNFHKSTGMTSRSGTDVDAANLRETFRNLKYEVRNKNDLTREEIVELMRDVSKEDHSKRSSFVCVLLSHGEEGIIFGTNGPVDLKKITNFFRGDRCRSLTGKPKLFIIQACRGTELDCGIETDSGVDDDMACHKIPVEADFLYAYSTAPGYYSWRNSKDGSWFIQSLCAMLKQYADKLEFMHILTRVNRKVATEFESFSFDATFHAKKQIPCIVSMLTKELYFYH

C=CCc1cccc(/C=N/NC(=O)CN2CCN(Cc3ccccc3)CC2)c1O [PAC-1]
procaspase-3 activation in vitro (in words) (procaspase-3): activate procaspase-3 in vitro | Activity (direct activation of purified procaspase-3 in vitro) (procaspase-3; Table 2): Active | EC50 (procaspase-3; in vitro): ~220 nM | EC50 (procaspase-3; wild type procaspase-3 (DDD)): 220 nM | Fold better than PAC-1 (HL-60 cell line; HL-60 IC50 relative to PAC-1): 1.0 fold | IC50 (HL-60 cell line; Homo sapiens, HL-60, Table 5): 54600 nM
